Reference: US20260217708A1, “FUSED BENZAZEPINE DERIVATIVES FOR USE IN THE TREATMENT OF CANCER AND EPILEPSY” (UCB BIOPHARMA SRL, priority 2023, published 2026)

Key:
system Xc^− [1] = molecular target: T1, system Xc^− (Homo sapiens, UniProt Q9UPY5); assay: [^14C]L-Cystine uptake assay; format: cell-based; set-up: endogenous in cells; host or cells: H4 cells; conditions: H4 cells, sodium-free HEPES buffer, 0.5 μM L-[14C]Cystine and 4.5 μM L-Cystine, 1 hour at 37° C.; read-out: pIC50 [^14C] L-Cystine uptake assay (converted)
T1 sequence (Q9UPY5 1-501): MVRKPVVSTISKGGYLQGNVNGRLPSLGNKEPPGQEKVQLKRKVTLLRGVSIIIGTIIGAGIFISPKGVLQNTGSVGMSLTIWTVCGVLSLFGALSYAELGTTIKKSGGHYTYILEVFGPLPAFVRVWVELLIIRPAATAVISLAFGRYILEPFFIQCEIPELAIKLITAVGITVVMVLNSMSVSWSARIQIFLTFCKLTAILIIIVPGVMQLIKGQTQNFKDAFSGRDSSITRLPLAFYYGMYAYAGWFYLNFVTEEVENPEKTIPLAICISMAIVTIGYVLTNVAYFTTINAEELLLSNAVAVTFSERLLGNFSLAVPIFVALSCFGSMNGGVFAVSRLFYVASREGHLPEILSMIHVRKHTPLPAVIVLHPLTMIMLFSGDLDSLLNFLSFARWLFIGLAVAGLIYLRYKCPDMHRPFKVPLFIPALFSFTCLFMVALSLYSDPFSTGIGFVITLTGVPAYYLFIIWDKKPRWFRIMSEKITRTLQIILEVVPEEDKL
T1 sequence (P08195 1-529 partner): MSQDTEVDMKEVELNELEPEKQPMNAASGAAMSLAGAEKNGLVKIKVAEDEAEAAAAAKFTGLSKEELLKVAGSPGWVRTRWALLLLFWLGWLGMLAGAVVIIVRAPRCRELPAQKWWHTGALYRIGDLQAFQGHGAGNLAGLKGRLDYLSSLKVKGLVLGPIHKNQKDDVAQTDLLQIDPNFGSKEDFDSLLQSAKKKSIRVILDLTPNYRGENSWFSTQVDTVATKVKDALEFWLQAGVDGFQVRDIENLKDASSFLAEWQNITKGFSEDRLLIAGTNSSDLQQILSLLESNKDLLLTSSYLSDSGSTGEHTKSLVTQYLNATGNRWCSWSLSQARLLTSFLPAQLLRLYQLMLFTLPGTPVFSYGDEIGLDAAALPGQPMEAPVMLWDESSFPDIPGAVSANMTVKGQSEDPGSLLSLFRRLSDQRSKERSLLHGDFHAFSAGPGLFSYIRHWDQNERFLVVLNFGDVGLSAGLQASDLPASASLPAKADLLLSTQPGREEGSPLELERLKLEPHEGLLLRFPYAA
Outline: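 Compound effect is given as pIC50, taken between controls of 1% DMSO and 50 μM Erastin. Human H4 cells were pretreated 15 min with compound in sodium-free buffer, then took up 0.5 μM [14C]cystine with 4.5 μM cold cystine for 1 hour at 37° C, read by scintillation proximity counting.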

system Xc^− [2] = molecular target: T1, system Xc^−; assay: Cystine-induced glutamate release assay; format: cell-based; set-up: endogenous in cells; host or cells: H4 cells; conditions: H4 cells, sodium-free HEPES buffer, 50 μM L-Cystine, 2 hours, Amplex Red glutamate readout; read-out: pIC50 Cystine-induced glutamate release assay (converted)
Outline: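 IC50 (reported as pIC50) normalized to DMSO 1% and Erastin 50 μM controls, from Amplex Red fluorescence of glutamate exported into supernatant. H4 cells were washed into sodium-free buffer to exclude EAAT transport, then given compound with 50 μM L-cystine for 2 h in the incubator.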

Row | IC50 (system Xc^− [1]) [nM] | IC50 (system Xc^− [2]) [nM] | SMILES
1 | 100 to 501 | 39.8 to 100 | Cc1cc2c(c(F)n1)-c1cccnc1C(C)(F)C(=O)N2CC(=O)Nc1ccc(C(F)(F)F)cc1 (stereo not shown) [#89, 2-(3,10-difluoro-5,10-dimethyl-9-oxo-4,8,12-triazatricyclo[9.4.0.0^2,7]pentadeca-1(11),2(7),3,5,12,14-hexaen-8-yl)-N-[4-(trifluoromethyl)phenyl]acetamide]
2 | < 15.8 | 15.8 to 39.8 | Cc1cc2c(c(F)n1)-c1cccnc1C(C)C(=O)N2CC(=O)Nc1ccc(Cl)c(F)c1 (stereo not shown) [#90, N-(4-chloro-3-fluoro-phenyl)-2-(3-fluoro-5,10-dimethyl-9-oxo-4,8,12-triazatricyclo[9.4.0.0^2,7]pentadeca-1(11),2(7),3,5,12,14-hexaen-8-yl)acetamide]
3 | 15.8 to 39.8 | 39.8 to 100 | Cc1cc2c(cn1)-c1cccnc1C(C)C(=O)N2CC(=O)Nc1ccc(C(F)(F)F)cc1 (stereo not shown) [#91, 2-(5,10-dimethyl-9-oxo-4,8,12-triazatricyclo[9.4.0.0^2,7]pentadeca-1(11),2(7),3,5,12,14-hexaen-8-yl)-N-[4-(trifluoromethyl)phenyl]acetamide]
4 | < 15.8 | 39.8 to 100 | [2H]C([2H])([2H])C1C(=O)N(CC(=O)Nc2ccc(C(F)(F)F)cc2)c2cc(C)nc(F)c2-c2cccnc21 (stereo not shown) [#92, 2-[3-fluoro-5-methyl-9-oxo-10-(trideuteriomethyl)-4,8,12-triazatricyclo[9.4.0.0^2,7]pentadeca-1(15),2(7),3,5,11,13-hexaen-8-yl]-N-[4-(trifluoromethyl)phenyl]acetamide]
5 | 15.8 to 39.8 | 39.8 to 100 | Cc1cc2c(c(F)n1)-c1ccc(C)nc1C(C)C(=O)N2CC(=O)Nc1ccc(C(F)(F)F)cc1 (stereo not shown) [#93, 2-(3-fluoro-5,10,13-trimethyl-9-oxo-4,8,12-triazatricyclo[9.4.0.0^2,7]pentadeca-1(11),2(7),3,5,12,14-hexaen-8-yl)-N-[4-(trifluoromethyl)phenyl]acetamide]
6 | 39.8 to 100 | 39.8 to 100 | Cc1cc2c(c(F)n1)-c1cccnc1C(O)C(=O)N2CC(=O)Nc1ccc(C(F)(F)F)cc1 (stereo not shown) [#94, 2-(3-fluoro-10-hydroxy-5-methyl-9-oxo-4,8,12-triazatricyclo[9.4.0.0^2,7]pentadeca-1(15),2(7),3,5,11,13-hexaen-8-yl)-N-[4-(trifluoromethyl)phenyl]acetamide]
7 | 39.8 to 100 | 15.8 to 39.8 | Cc1cc2c(c(F)n1)-c1ccccc1C(O)C(=O)N2CC(=O)Nc1ccc(C(F)(F)F)cc1 (stereo not shown) [#95, 2-(1-fluoro-7-hydroxy-3-methyl-6-oxo-7H-pyrido[4,3-d][3]benzazepin-5-yl)-N-[4-(trifluoromethyl)phenyl]acetamide]
8 | 15.8 to 39.8 | 15.8 to 39.8 | COc1nc(C)cc2c1-c1cccnc1C(O)C(=O)N2CC(=O)Nc1ccc(C(F)(F)F)cc1 (stereo not shown) [#96, 2-(10-hydroxy-3-methoxy-5-methyl-9-oxo-4,8,12-triazatricyclo[9.4.0.0^2,7]pentadeca-1(11),2,4,6,12,14-hexaen-8-yl)-N-[4-(trifluoromethyl)phenyl]acetamide]
9 | < 15.8 | 39.8 to 100 | Cc1cc2c(c(Cl)n1)-c1cccnc1CC(=O)N2CC(=O)Nc1ccc(C(F)(F)F)cc1 [#97, 2-(3-chloro-5-methyl-9-oxo-4,8,12-triazatricyclo[9.4.0.0^2,7]pentadeca-1(11),2(7),3,5,12,14-hexaen-8-yl)-N-[4-(trifluoromethyl)phenyl]acetamide]
10 | < 15.8 | 15.8 to 39.8 | Cc1cc2c(c(F)n1)-c1cccnc1C(F)C(=O)N2CC(=O)Nc1ccc(C(F)(F)F)cc1 (stereo not shown) [#101, 2-(3,10-difluoro-5-methyl-9-oxo-4,8,12-triazatricyclo[9.4.0.0^2,7]pentadeca-1(11),2(7),3,5,12,14-hexaen-8-yl)-N-[4-(trifluoromethyl)phenyl]acetamide]
11 | 100 to 501 | 100 to 501 | Cc1cc2c(c(N)n1)-c1cccnc1CC(=O)N2CC(=O)Nc1ccc(C(F)(F)F)cc1 [#103, 2-(3-amino-5-methyl-9-oxo-4,8,12-triazatricyclo[9.4.0.0^2,7]pentadeca-1(11),2(7),3,5,12,14-hexaen-8-yl)-N-[4-(trifluoromethyl)phenyl]acetamide]

More lines, now with the values behind:

Row | SMILES | IC50 (system Xc^− [1]) [nM] | IC50 (system Xc^− [2]) [nM]
12 | Cc1cc2c(c(F)n1)-c1ccc(F)cc1CC(=O)N2CC(=O)Nc1ccc(C(F)(F)F)cc1 [#86, 2-(1,9-difluoro-3-methyl-6-oxo-7H-pyrido[4,3-d][3]benzazepin-5-yl)-N-[4-(trifluoromethyl)phenyl]acetamide] | 15.8 to 39.8 | 39.8 to 100
13 | Cc1cc2c(c(F)n1)-c1c(F)cccc1CC(=O)N2CC(=O)Nc1ccc(C(F)(F)F)cc1 [#87, 2-(1,11-difluoro-3-methyl-6-oxo-7H-pyrido[4,3-d][3]benzazepin-5-yl)-N-[4-(trifluoromethyl)phenyl]acetamide] | 39.8 to 100 | 100 to 501
14 | Cc1cc2c(c(F)n1)-c1cccc(C#N)c1CC(=O)N2CC(=O)Nc1ccc(C(F)(F)F)cc1 [#88, 2-(8-cyano-1-fluoro-3-methyl-6-oxo-7H-pyrido[4,3-d][3]benzazepin-5-yl)-N-[4-(trifluoromethyl)phenyl]acetamide] | 39.8 to 100 | 39.8 to 100
15 | COc1nc(C)cc2c1-c1cncnc1CC(=O)N2CC(=O)Nc1ccc(C(F)(F)F)cc1 [#98, 2-(15-methoxy-13-methyl-9-oxo-4,6,10,14-tetrazatricyclo[9.4.0.0^2,7]pentadeca-1(15),2(7),3,5,11,13-hexaen-10-yl)-N-[4-(trifluoromethyl)phenyl]acetamide] | 15.8 to 39.8 | 39.8 to 100
16 | COc1nc(C)cc2c1-c1ccnn1CC(=O)N2CC(=O)Nc1ccc(C(F)(F)F)cc1 [#99, 2-(14-methoxy-12-methyl-8-oxo-5,6,9,13-tetrazatricyclo[8.4.0.0^2,6]tetradeca-1(14),2,4,10,12-pentaen-9-yl)-N-[4-(trifluoromethyl)phenyl]acetamide] | 100 to 501 | 39.8 to 100
17 | Cc1cc2c(c(Cl)n1)-c1ccnn1CC(=O)N2CC(=O)Nc1ccc(C(F)(F)F)cc1 [#100, 2-(14-chloro-12-methyl-8-oxo-5,6,9,13-tetrazatricyclo[8.4.0.0^2,6]tetradeca-1(14),2,4,10,12-pentaen-9-yl)-N-[4-(trifluoromethyl)phenyl]acetamide] | 39.8 to 100 | 39.8 to 100
18 | Cc1cc2c(c(F)n1)-c1cccc(=O)n1CC(=O)N2CC(=O)Nc1ccc(C(F)(F)F)cc1 [#102, 2-(3-fluoro-5-methyl-9,12-dioxo-4,8,11-triazatricyclo[9.4.0.0^2,7]pentadeca-1(15),2(7),3,5,13-pentaen-8-yl)-N-[4-(trifluoromethyl)phenyl]acetamide] | 39.8 to 100 | 100 to 501
19 | COc1nc(C)cc2c1-c1cc(C)nn1CC(=O)N2CC(=O)Nc1ccc(C(F)(F)F)cc1 [#104, 2-(14-methoxy-4,12-dimethyl-8-oxo-5,6,9,13-tetrazatricyclo[8.4.0.0^2,6]tetradeca-1(14),2,4,10,12-pentaen-9-yl)-N-[4-(trifluoromethyl)phenyl]acetamide] | 39.8 to 100 | 39.8 to 100
20 | Cc1cc2c(c(Cl)n1)-c1cc(C)nn1CC(=O)N2CC(=O)Nc1ccc(C(F)(F)F)cc1 [#105, 2-(14-chloro-4,12-dimethyl-8-oxo-5,6,9,13-tetrazatricyclo[8.4.0.0^2,6]tetradeca-1(14),2,4,10,12-pentaen-9-yl)-N-[4-(trifluoromethyl)phenyl]acetamide] | 39.8 to 100 | 39.8 to 100
